Measured values published in patent publication US20250120969A1, “METHODS AND COMPOSITIONS FOR TREATING INFLAMMATION INJURY IN THE LUNGS” (CalciMedica, Inc., priority 2022, published 2025).

Legend:
human lymphocytes = test: In vitro cytokine release in human lymphocytes; assay type: cell-based
Source text: (§1) Preclinical data supports the use of CRAC inhibitors (e.g. N-(5-(6-Chloro-2,2-difluorobenzo[d][1,3]dioxol-5-yl)pyrazin-2-yl)-2-fluoro-6-methylbenzamide, Compound 1) in severe COVID-19 pneumonia.

[1] = test system: patients with AP and accompanying SIRS plus hypoxemia; test: Clinical and pharmacodynamic study in patients with acute pancreatitis, SIRS and hypoxemia; conditions: human, in vivo
CRAC channels = CRAC channels (Homo sapiens, UniProt Q96D31); test: CRAC channel inhibition
[2] = test system: lung tissue cytokines and neutrophil infiltration; test: Animal models of acute pancreatitis (AP) and lung injury; assay type: in vivo
Source text: as §1

CRAC channels, sequence (Q96D31 whole entry): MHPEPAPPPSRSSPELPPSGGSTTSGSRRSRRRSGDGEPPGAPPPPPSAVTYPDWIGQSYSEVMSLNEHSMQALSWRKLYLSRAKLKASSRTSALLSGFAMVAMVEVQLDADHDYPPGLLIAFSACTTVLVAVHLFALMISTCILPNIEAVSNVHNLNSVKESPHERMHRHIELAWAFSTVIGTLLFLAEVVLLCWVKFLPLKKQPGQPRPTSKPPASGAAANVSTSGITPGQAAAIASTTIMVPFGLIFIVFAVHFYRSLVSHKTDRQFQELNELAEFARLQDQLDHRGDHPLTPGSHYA

Cc1cccc(F)c1C(=O)Nc1cnc(-c2cc3c(cc2Cl)OC(F)(F)O3)cn1 [Compound 1, N-(5-(6-Chloro-2,2-difluorobenzo[d][1,3]dioxol-5-yl)pyrazin-2-yl)-2-fluoro-6-methylbenzamide]
Release of multiple cytokines (human lymphocytes): inhibits release of multiple cytokines | IL-6 levels in patients [1]: marked reduction in IL-6 levels | Respiratory dysfunction in patients [1]: beneficial effects on respiratory dysfunction | Inhibition of CRAC channels (CRAC channels): potent and selective | Cytokines and neutrophil infiltration in lung tissue [2]: inhibit cytokines and neutrophil infiltration in lung tissue
